From US6562837B1, “Use of tetrahydroisoquinoline compounds for the treatment of septicemia” (Korea Institute of Science & Technology, priority 1998, dated 2003)

What was measured:
Rat thoracic aorta = experiment: Relaxation of phenylephrine-contracted isolated rat thoracic aorta; assay type: cell-based
[1] = tested on: thrombus formation in AVS tube; experiment: Thrombus formation in arterio-venous shunt (AVS) tube in rats; assay type: in vivo; conditions: for Weight (mg) of thrombus: control 42.67 ± 5.381
Protocol: An AVS tube was prepared. For this, a scalp vein set was cut into a length of 18 cm, and each end was connected to a 18G syringe needle while a 100% cotton thread 5 cm long was fixed to the center of the tube. Rats were anesthetized with ketamine (250 mg/kg) by injection (i.m.) and underwent laparotomy. An AVS tube filled with saline was installed between the abdominal aorta and the renal vein in such a way that its one syringe needle was inserted in the abdominal aorta and the other syringe needle was inserted in the renal vein. Blood was allowed to pass through the AVS tube so as to form thrombus on the cotton thread. After circulation of blood through the AVS tube for 15 min, the thread was taken out from the AVS tube. The weight of the thrombus formed on the cotton thread was determined by weighing the thread.

[2] = tested on: acute thrombosis in the pulmonary artery; experiment: Acute thrombosis (collagen plus epinephrine i.v.) in mice, recovery from paralysis; assay type: in vivo
Protocol: A mixture of collagen (300:μg/kg) plus epinephrine (30:μg/kg) was injected into the tail vein of mice (ICR; […], the same mice were employed in all of the following experiments) to induce massive, acute thrombosis in the pulmonary artery. Thus, an acute thrombosis model, in which mice were paralyzed in 1-3 min after the injection and most of them died within 15 min was prepared. To investigate the effect of the compounds of Chemical Formulas 1 and 2 on the acute thrombosis, either of the compounds was orally administered to mice for 1 or 3 days. The intravenous injection of the mixture of collagen and epinephrine was conducted 1 hour after the final oral administration. An observation was taken to examine the mortality change and the recovery from the paralysis and the results are given in Tables 4 and 5, below.
Most of the mice were paralyzed within 1 min after the injection, following dilation of the pupils, difficult breathing, and convulsions. Most of the mice either died within 5 min or were subjected to paralysis for 15 min or longer. Only a few of them recovered from the paralysis.

LPS-caused death = experiment: Preventive effect on LPS-caused death in mice; assay type: in vivo; conditions: for survival rate until 48 hours: 10 mg/kg i.p. 30 min before LPS (20 mg/kg i.p.), LPS only about 20%; for deaths up to 30 hours after the LPS injection: 20 mg/kg i.p. 30 min before LPS (20 mg/kg i.p.)
Protocol: When a large quantity of LPS is injected into animals, various diseases, such as DIC, are generated and they are dead of septic shock in a short period of time. In this experiment, LPS (20 mg/kg) was intraperitoneally injected into mice and the number of mice which were alive for 48 hours after the injection, was counted. Also, an examination was made of the influence of test drugs on the survival ratio.
LPS (20 mg/kg) was administered to mice by injection (i.p.), after which the mice alive were countered every 6 hours for 48 hours. 30 min before LPS injection, test drugs were intraperitoneally injected into the mice to examine the preventive effect on the LPS-caused death.

α-receptor = experiment: Binding affinity to α-adrenoceptor, [3H]prazosin, rat cerebral cortical membrane; conditions: [3H]prazosin 200 pM, 25° C., 30 min, read-out: Dissociation constant Ki (M) for cerebral α-receptor of rat
Protocol: For this, the cerebral cortex obtained from rats (Sprague-Dawley, 250±20 g; unless particularly mentioned, the same rats were used in the following experiments) was homogeneously mixed with a 20× buffer (50 mM Tris, 5 mM MgSO4, 1 mM EDTA, 1 mM ascorbic acid, pH 7.7) and then, centrifuged three times at 35,000×g for 15 min and the pellet was stored at −70° C. A solution of 5 mg of the pellet in 1 ml of the buffer was incubated, along with [^3H]prazosin (200 pM) and samples, at 25° C. for 30 min followed by adding 10 ml of a buffer (50 mM Tris, pH 7.7) to quench the binding reaction. The resulting solution was filtered through a Whatman GF/C glass microfiber filter which was then shaken for 2 hours while being completely submerged in a scintillation cocktail. The radioactivity was measured using a scintillation counter (Beckman, LS6500)

[3] = 10 mg/kg orally once a day for successive three days
[4] = 25 mg/kg orally once, first series, control 33.61 mg
[5] = 25 mg/kg orally once, first series, control 33.61 ± 7.620
[6] = 50 mg/kg orally once a day for successive three days
[7] = 50 mg/kg orally once, second series, control 39.54 mg
[8] = 50 mg/kg orally once, second series, control 39.54 ± 5.625
[9] = 10 mg/kg orally once for three successive days, recovered within 15 min
[10] = 10 mg/kg orally once for three successive days, recovered within 15 min, control 20%
[11] = 50 mg/kg orally once for three successive days, recovered within 15 min
[12] = 50 mg/kg orally once for three successive days, recovered within 15 min, control 20%
[13] = 50 mg/kg orally once, recovered from thrombotic paralysis within 15 min
[14] = 50 mg/kg orally once, recovered within 15 min, control 17%
[15] = 100 mg/kg orally once, recovered from thrombotic paralysis within 15 min
[16] = 100 mg/kg orally once, recovered within 15 min, control 17%

SMILES | IC50 (Rat thoracic aorta) | % Inhibition of thrombus formation [1, 3] | Weight (mg) of thrombus [1, 3] | % Inhibition of thrombus formation [1, 4] | Weights (mg) of thrombus [1, 5] | % Inhibition of thrombus formation [1, 6] | Weight (mg) of thrombus [1, 6] | % Inhibition of thrombus formation [1, 7] | Weights (mg) of thrombus [1, 8] | Mice Recovered, Number [2, 9] | Mice Recovered, % [2, 10] | Mice Recovered, Number [2, 11] | Mice Recovered, % [2, 12] | Mice Recovered, Number [2, 13] | Mice Recovered, % [2, 14] | Mice Recovered, Number [2, 15] | Mice Recovered, % [2, 16] | survival rate until 48 hours (LPS-caused death) | deaths up to 30 hours after the LPS injection (LPS-caused death) | Ki (α-receptor)
Oc1cc2c(cc1O)C(Cc1cccc3ccccc13)NCC2 (stereo not drawn) [Compound 1, 1-α-naphthylmethyl-6,7-dihydroxy-1,2,3,4-tetrahydroisoquinoline] | 2.75 µM | 25.5% | 31.78 ± 8.385 mg | 39.7% | 20.27 ± 5.366 mg | 28.0% | 30.72 ± 6.334 mg | 24.8% | 29.72 ± 5.975 mg | 3 | 30% | 5 | 42% | 8 | 47% | 9 | 45% | 60% | no mice were dead until 30 hours | 2.7e-07 M
Oc1cc2c(cc1O)C(Cc1ccc3ccccc3c1)NCC2 (stereo not drawn) [Compound 2, 1-β-naphthylmethyl-6,7-dihydroxy-1,2,3,4-tetrahydroisoquinoline] | 2.81 µM | 24.4% | 32.24 ± 4.836 mg | 32.5% | 22.68 ± 10.127 mg | 29.3% | 30.18 ± 6.571 mg | 27.7% | 28.58 ± 4.234 mg | 7 | 70% | 7 | 64% | 14 | 50% | 12 | 50% | 80% | no mice were dead until 30 hours | 1.5e-07 M
Oc1ccc(CC2NCCc3cc(O)c(O)cc32)cc1 (centres unmarked) [Higenamine, reference compound] | 1.02 µM | 13.9% | 36.76 ± 7.964 mg | 31.6% | 22.98 ± 11.271 mg | 18.7% | 34.68 ± 8.513 mg | 25.1% | 29.61 ± 5.059 mg | 2 | 17% | 5 | 45% | 11 | 37% | 13 | 48% | 80% | – | 1.26e-06 M
